Results published in ChEMBL document CHEMBL5291721, “A preclinical secondary pharmacology resource illuminates target-adverse drug reaction associations of marketed drugs” (Nat Commun, 2023).

Assays:
Estrogen receptor = target: T1, Estrogen receptor (Homo sapiens, UniProt P03372)
T1 sequence (P03372 whole entry): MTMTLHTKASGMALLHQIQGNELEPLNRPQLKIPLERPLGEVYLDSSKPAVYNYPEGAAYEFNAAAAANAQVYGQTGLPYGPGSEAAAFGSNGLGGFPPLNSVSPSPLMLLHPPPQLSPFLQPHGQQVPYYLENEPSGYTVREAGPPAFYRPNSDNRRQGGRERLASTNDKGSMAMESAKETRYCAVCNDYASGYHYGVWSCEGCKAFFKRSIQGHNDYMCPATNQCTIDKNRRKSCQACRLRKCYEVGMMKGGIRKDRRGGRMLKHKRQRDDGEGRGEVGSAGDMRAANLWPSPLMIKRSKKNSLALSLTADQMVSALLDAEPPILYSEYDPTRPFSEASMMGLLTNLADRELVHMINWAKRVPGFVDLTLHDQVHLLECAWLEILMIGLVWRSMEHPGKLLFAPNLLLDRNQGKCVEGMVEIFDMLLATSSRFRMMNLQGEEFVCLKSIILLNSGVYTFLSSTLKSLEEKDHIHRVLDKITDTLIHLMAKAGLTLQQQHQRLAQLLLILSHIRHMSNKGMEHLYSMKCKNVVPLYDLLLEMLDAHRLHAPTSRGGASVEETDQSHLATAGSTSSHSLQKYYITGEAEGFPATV

Mu-type opioid receptor = Mu-type opioid receptor (Homo sapiens, UniProt P35372); experiment: biochemical; assay type: functional
Mu-type opioid receptor, sequence (P35372 whole entry): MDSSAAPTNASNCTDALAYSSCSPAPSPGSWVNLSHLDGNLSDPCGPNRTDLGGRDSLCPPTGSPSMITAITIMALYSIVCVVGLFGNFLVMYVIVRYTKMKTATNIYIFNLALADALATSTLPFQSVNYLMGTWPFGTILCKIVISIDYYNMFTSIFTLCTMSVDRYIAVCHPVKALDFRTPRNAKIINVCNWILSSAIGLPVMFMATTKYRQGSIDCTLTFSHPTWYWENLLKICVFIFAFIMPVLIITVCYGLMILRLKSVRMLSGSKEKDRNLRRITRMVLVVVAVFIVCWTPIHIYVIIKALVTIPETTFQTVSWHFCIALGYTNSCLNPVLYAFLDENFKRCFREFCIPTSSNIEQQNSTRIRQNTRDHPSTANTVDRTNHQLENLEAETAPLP

[1] = target: T2, Muscarinic acetylcholine receptor M5 (Homo sapiens, UniProt P08912)
T2 sequence (P08912 whole entry): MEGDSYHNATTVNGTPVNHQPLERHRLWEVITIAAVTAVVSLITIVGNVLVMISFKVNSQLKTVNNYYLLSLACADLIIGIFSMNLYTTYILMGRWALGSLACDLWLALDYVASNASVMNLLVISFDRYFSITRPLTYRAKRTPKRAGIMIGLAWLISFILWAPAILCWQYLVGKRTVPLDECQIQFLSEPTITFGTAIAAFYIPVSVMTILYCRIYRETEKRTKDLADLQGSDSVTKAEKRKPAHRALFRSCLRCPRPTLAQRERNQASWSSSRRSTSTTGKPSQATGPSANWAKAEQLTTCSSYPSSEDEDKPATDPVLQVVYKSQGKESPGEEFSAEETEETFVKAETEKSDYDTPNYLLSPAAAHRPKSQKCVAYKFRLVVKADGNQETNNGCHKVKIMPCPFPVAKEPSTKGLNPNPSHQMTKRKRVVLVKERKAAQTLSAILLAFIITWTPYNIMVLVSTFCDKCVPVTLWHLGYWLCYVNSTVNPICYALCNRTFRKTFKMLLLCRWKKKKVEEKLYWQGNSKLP

Cannabinoid receptor 1 = Cannabinoid receptor 1 (Homo sapiens, UniProt P21554)
Cannabinoid receptor 1, sequence (P21554 whole entry): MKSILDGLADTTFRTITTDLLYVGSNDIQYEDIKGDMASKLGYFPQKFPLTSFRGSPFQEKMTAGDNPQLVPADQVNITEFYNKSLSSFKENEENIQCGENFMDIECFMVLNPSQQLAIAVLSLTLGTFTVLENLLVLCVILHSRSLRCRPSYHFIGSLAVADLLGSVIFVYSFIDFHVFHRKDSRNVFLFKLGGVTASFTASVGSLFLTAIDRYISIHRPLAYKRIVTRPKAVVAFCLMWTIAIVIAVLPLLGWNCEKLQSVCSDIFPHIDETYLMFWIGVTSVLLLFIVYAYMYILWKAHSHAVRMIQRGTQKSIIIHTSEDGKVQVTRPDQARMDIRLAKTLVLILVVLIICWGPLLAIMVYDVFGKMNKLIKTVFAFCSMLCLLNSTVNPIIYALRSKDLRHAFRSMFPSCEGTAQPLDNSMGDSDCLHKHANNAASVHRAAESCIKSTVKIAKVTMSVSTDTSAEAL

Estrogen receptor beta = Estrogen receptor beta (Homo sapiens, UniProt Q92731)
Estrogen receptor beta, sequence (Q92731 whole entry): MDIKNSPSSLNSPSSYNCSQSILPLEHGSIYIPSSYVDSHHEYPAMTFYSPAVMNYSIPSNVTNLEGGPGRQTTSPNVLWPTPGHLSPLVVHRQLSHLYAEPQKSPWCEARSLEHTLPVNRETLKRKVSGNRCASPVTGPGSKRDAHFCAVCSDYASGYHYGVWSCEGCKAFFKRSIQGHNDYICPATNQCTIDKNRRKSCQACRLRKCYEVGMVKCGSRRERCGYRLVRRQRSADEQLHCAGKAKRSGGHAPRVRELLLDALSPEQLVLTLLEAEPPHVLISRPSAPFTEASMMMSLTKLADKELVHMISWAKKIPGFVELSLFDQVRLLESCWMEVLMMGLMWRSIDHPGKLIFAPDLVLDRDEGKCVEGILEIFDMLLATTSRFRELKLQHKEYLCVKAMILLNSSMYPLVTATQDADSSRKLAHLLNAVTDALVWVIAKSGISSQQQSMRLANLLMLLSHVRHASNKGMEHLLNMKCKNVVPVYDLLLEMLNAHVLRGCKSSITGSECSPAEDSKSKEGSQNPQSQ

[2] = target: 5-hydroxytryptamine receptor 7 (Homo sapiens, UniProt P34969)
5-hydroxytryptamine receptor 7, sequence (P34969 whole entry): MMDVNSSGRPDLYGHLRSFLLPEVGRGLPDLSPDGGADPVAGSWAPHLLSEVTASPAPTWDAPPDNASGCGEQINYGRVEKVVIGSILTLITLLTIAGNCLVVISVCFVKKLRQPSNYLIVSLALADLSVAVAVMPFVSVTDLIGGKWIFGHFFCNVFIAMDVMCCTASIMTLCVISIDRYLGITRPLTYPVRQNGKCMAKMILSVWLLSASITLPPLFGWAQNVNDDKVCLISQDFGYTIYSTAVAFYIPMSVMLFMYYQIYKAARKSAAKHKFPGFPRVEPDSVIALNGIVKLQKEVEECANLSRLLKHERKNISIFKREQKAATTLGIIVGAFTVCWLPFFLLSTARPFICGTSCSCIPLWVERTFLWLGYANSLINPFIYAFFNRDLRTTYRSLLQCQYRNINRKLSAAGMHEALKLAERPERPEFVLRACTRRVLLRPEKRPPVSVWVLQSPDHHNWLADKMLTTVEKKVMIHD

[3] = target: Neurotensin receptor type 1 (Homo sapiens, UniProt P30989)
Neurotensin receptor type 1, sequence (P30989 whole entry): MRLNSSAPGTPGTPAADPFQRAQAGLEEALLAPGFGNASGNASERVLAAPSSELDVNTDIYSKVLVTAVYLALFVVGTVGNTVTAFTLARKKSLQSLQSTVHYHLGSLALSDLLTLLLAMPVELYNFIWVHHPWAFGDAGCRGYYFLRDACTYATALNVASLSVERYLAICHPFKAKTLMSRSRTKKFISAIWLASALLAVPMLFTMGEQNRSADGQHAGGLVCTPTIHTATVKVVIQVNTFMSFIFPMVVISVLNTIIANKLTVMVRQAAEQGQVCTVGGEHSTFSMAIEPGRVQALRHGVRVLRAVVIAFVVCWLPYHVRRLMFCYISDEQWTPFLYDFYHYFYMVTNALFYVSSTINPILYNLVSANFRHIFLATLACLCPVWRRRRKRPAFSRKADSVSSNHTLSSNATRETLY

Progesterone receptor = target: T3, Progesterone receptor (Homo sapiens, UniProt P06401)
T3 sequence (P06401 whole entry): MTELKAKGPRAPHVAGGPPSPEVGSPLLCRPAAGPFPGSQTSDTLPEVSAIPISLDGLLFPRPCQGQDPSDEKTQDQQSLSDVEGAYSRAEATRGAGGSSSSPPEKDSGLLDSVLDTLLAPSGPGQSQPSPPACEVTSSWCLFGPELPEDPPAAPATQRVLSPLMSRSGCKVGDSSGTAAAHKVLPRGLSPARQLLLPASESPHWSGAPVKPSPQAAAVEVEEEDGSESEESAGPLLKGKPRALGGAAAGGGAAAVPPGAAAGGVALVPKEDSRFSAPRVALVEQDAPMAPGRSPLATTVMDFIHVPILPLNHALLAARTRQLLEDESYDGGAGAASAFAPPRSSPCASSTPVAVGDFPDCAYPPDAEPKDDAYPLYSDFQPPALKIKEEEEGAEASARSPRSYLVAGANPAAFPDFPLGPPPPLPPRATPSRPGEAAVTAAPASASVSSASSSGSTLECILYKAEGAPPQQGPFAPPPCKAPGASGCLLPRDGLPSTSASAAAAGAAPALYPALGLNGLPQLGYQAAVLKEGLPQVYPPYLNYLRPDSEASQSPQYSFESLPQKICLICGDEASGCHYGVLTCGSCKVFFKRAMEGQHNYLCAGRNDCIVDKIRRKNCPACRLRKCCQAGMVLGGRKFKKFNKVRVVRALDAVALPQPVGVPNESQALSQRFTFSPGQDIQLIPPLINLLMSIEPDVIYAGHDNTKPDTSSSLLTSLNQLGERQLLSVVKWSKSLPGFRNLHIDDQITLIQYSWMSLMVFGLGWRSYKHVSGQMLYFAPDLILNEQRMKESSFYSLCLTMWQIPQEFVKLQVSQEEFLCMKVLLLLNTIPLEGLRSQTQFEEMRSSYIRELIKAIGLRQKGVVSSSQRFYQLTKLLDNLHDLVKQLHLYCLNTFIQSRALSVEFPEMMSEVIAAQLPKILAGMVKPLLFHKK

Histamine H1 receptor = Histamine H1 receptor (Homo sapiens, UniProt P35367)
Histamine H1 receptor, sequence (P35367 whole entry): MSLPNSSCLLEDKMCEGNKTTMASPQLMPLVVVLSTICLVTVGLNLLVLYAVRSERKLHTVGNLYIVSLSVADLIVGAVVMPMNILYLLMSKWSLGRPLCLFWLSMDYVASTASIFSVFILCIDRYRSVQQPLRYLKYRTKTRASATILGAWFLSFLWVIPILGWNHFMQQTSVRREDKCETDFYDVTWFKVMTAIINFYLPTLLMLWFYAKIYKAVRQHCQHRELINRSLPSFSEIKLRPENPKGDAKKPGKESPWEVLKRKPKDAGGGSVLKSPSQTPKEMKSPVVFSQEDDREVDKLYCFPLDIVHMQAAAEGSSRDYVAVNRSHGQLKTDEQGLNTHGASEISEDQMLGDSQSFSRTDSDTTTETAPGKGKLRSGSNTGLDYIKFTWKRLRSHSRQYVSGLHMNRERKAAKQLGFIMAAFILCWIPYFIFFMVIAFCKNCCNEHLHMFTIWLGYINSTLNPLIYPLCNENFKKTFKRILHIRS

[4] = target: Synaptic vesicular amine transporter (Rattus norvegicus, UniProt Q01827); assay type: functional
Synaptic vesicular amine transporter, sequence (Q01827 whole entry): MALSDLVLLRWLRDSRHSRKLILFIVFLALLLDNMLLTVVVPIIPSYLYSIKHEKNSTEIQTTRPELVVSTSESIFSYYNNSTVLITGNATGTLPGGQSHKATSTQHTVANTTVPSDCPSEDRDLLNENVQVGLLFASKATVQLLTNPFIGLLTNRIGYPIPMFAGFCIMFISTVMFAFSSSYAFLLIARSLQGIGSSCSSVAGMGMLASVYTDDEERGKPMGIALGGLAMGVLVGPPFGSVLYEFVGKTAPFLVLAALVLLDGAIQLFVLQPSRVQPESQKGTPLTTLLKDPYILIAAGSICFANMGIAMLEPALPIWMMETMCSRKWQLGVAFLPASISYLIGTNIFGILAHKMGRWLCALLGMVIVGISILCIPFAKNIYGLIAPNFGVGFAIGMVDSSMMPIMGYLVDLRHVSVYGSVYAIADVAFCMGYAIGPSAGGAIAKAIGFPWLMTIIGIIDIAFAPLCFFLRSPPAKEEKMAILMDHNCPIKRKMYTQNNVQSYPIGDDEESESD
Further: assay procedure not described here.

SMILES	AC50 (Estrogen receptor)	AC50 (Mu-type opioid receptor)	AC50 (Cannabinoid receptor 1)	AC50 [3]	AC50 (Progesterone receptor)	AC50 (Histamine H1 receptor)	other results
CC(/C=C1\SC(=S)N(CC(=O)O)C1=O)=C\c1ccccc1	> 30 µM	> 30 µM					
CC1(C)S[C@@H]2[C@H](NC(=O)[C@H](N)c3ccc(O)cc3)C(=O)N2[C@H]1C(=O)O [AMOXICILLIN]		> 30 µM	> 30 µM	> 30 µM	> 30 µM		AC50 [1]: > 10 µM; AC50 (Estrogen receptor beta): > 30 µM; AC50 [2]: > 10 µM
O=C1CN2Cc3c(ccc(Cl)c3Cl)N=C2N1 [ANAGRELIDE]	> 30 µM		> 10 µM		> 30 µM	> 10 µM	
CNCC[C@@H](Oc1ccccc1C)c1ccccc1 [ATOMOXETINE]	> 30 µM	18 µM					
CCc1oc2ccccc2c1C(=O)c1cc(Br)c(O)c(Br)c1 [BENZBROMARONE]	> 30 µM		> 10 µM		> 30 µM		
Cc1ccc([C@@H]2O[C@H](CO)[C@@H](O)[C@H](O)[C@H]2O)cc1Cc1ccc(-c2ccc(F)cc2)s1 [CANAGLIFLOZIN ANHYDROUS]							AC50 [4]: 20 µM
C=C(C)[C@@H]1CCC(C)=C[C@H]1c1c(O)cc(CCCCC)cc1O [CANNABIDIOL]						> 30 µM	
CO/N=C(\C(=O)N[C@@H]1C(=O)N2C(C(=O)O)=C(COC(N)=O)CS[C@H]12)c1ccco1 [CEFUROXIME]		> 30 µM				> 30 µM	
[H]/N=C(\N/C(=N/[H])NCCCCCCNC(=N)NC(=N)Nc1ccc(Cl)cc1)Nc1ccc(Cl)cc1 [CHLORHEXIDINE]	> 30 µM	> 10 µM	3.07 µM			> 10 µM	
Clc1cccc(Cl)c1N=C1NCCN1 [CLONIDINE]			> 10 µM	> 30 µM	> 30 µM		
COC(=O)[C@H](c1ccccc1Cl)N1CCc2sccc2C1 [CLOPIDOGREL]	> 30 µM	> 30 µM	> 30 µM	> 30 µM	> 30 µM		AC50 [1]: > 10 µM; AC50 (Estrogen receptor beta): > 30 µM; AC50 [2]: > 10 µM
CN1C[C@H](C(=O)N[C@]2(C)O[C@@]3(O)[C@@H]4CCCN4C(=O)[C@H](Cc4ccccc4)N3C2=O)C[C@@H]2c3cccc4[nH]cc(c34)C[C@H]21 [DIHYDROERGOTAMINE]	> 30 µM		> 10 µM	> 30 µM	> 30 µM		AC50 (Estrogen receptor beta): > 30 µM
CCC(=O)O[C@@H](O[P@](=O)(CCCCc1ccccc1)CC(=O)N1C[C@H](C2CCCCC2)C[C@H]1C(=O)O)C(C)C [FOSINOPRIL]		> 30 µM				> 30 µM	
Nc1nc(O)c2ncn(COC(CO)CO)c2n1 [GANCICLOVIR]	> 30 µM	> 30 µM					
Cc1cnc(NC(=O)C2=C(O)c3ccccc3S(=O)(=O)N2C)s1 [MELOXICAM]	> 30 µM		> 10 µM	> 30 µM	> 30 µM		AC50 [1]: > 10 µM; AC50 (Estrogen receptor beta): > 30 µM; AC50 [2]: > 10 µM
CC(=O)/N=c1/sc(S(N)(=O)=O)nn1C [METHAZOLAMIDE]	> 10 µM	> 30 µM	> 10 µM			> 10 µM	
CC[C@@H](CO)NC(=O)[C@@H]1C=C2c3cccc4[nH]cc(c34)C[C@H]2N(C)C1 [METHYLERGONOVINE]	> 30 µM	> 30 µM					
CC(=O)Oc1ccccc1C(=O)Nc1ncc([N+](=O)[O-])s1 [NITAZOXANIDE]	> 30 µM	> 30 µM				> 30 µM	

SMILES	AC50 (Estrogen receptor)	AC50 (Mu-type opioid receptor)	AC50 (Cannabinoid receptor 1)	AC50 [3]	AC50 (Progesterone receptor)	AC50 (Histamine H1 receptor)	other results
CNCCC=C1c2ccccc2CCc2ccccc21 [NORTRIPTYLINE]	> 30 µM	> 30 µM					AC50 [1]: 0.262 µM
CN(C)c1cc(CNCC(C)(C)C)c(O)c2c1C[C@H]1C[C@H]3[C@H](N(C)C)C(O)=C(C(N)=O)C(=O)[C@@]3(O)C(O)=C1C2=O [OMADACYCLINE]	> 30 µM	> 30 µM				> 30 µM	AC50 [1]: > 30 µM
COc1ccnc(C[S+]([O-])c2nc3ccc(OC(F)F)cc3[nH]2)c1OC (configuration not stated) [PANTOPRAZOLE]	> 30 µM		> 10 µM	> 30 µM	> 30 µM		AC50 (Estrogen receptor beta): > 30 µM
COc1ccc(Cc2nccc3cc(OC)c(OC)cc23)cc1OC [PAPAVERINE]		> 30 µM					
CNC[C@H](O)c1cccc(O)c1 [PHENYLEPHRINE]		> 30 µM	> 10 µM	> 30 µM	> 30 µM	> 10 µM	AC50 [1]: > 10 µM; AC50 (Estrogen receptor beta): > 30 µM; AC50 [2]: > 10 µM
CC(C)COc1ccc(CNC(=O)N(Cc2ccc(F)cc2)C2CCN(C)CC2)cc1 [PIMAVANSERIN]							AC50 [4]: 3.1 µM
CC(C)C[C@H](CN)CC(=O)O [PREGABALIN]	> 30 µM	> 30 µM	> 30 µM	> 30 µM	20.2 µM	> 30 µM	AC50 (Estrogen receptor beta): > 30 µM
CNC(=O)c1cc(Oc2ccc(NC(=O)Nc3ccc(Cl)c(C(F)(F)F)c3)c(F)c2)ccn1 [REGORAFENIB]						> 30 µM	
CCOc1cc(CC(=O)N[C@@H](CC(C)C)c2ccccc2N2CCCCC2)ccc1C(=O)O [REPAGLINIDE]						> 30 µM	
O=C(Nc1c(Cl)cncc1Cl)c1ccc(OC(F)F)c(OCC2CC2)c1 [ROFLUMILAST]	> 30 µM	> 30 µM				> 30 µM	AC50 [4]: 12.1 µM
CC(=O)S[C@@H]1CC2=CC(=O)CC[C@]2(C)[C@H]2CC[C@@]3(C)[C@@H](CC[C@@]34CCC(=O)O4)[C@H]12 [SPIRONOLACTONE]	> 30 µM		> 10 µM	> 30 µM			
NC(=O)NS(=O)(=O)c1ccc(N)cc1 [SULFACARBAMIDE]							AC50 [4]: > 30 µM
CCCCCCCCNC(C)C(O)c1ccc(SC(C)C)cc1 (configuration not stated) [SULOCTIDIL]							AC50 [4]: 0.0013 µM
CCCCNc1ccc(C(=O)OCCN(C)C)cc1 [TETRACAINE]			> 10 µM	9.9 µM	> 30 µM		AC50 [1]: > 10 µM; AC50 [2]: > 10 µM
Cn1c(=O)c2[nH]cnc2n(C)c1=O [THEOPHYLLINE]			> 10 µM	> 30 µM	> 30 µM		
CN1CCN(CCCN2c3ccccc3Sc3ccc(S(=O)(=O)N(C)C)cc32)CC1 [THIOPROPERAZINE]		> 30 µM				0.33 µM	
CC1(C)O[C@@H]2[C@@H](CO[C@@]3(COS(N)(=O)=O)OC(C)(C)O[C@@H]23)O1 [TOPIRAMATE]	> 30 µM		> 10 µM	> 30 µM	> 30 µM	> 10 µM	AC50 [1]: > 10 µM; AC50 (Estrogen receptor beta): > 30 µM; AC50 [2]: > 10 µM
Cc1cc(CC(=O)O)n(C)c1C(=O)c1ccc(Cl)cc1 [ZOMEPIRAC]		> 30 µM				> 30 µM	
